From patent US8592422B2, “Bicyclic triazole and pyrazole lactams as allosteric modulators of mGluR5 receptors” (Vanderbilt University, priority 2010, dated 2013)

The compounds below were run against T1, human mGluR5a receptor (Homo sapiens, UniProt P41594) (assay: Cell-based functional Ca2+ mobilization assay (FDSS), potentiation of glutamate EC20 response). Conditions: HEK cells transfected with human mGluR5 (H10H or H12H); in presence of EC20 glutamate.
T1 construct: cDNA subcloned into pcDNA3.1(-)
Experimental: Human embryonic kidney (HEK) cells transfected with rat mGluR5 were plated in clear bottom assay plates for assay in a Functional Drug Screening System (FDSS). In the alternative assay, HEK cells transfected with human mGluR5 were plated for assay in the FDSS. In some cases the HEK cells transfected with human mGluR5 were the H10H cell line. Alternatively, the HEK cells transfected with human mGluR5 were the H12H cell line. […] The cells were loaded with a Ca^2+-sensitive fluorescent dye (e.g., Fluo-4), and the plates were washed and placed in the FDSS instrument. After establishment of a fluorescence baseline for twelve seconds, the compounds of the present invention were added to the cells, and the response in cells was measured. Alternatively, in various further aspects, after establishment of a fluorescence baseline for about three seconds, the compounds of the present invention were added to the cells, and the response in cells was measured. Five minutes later, an mGluR5 agonist (e.g., glutamate, 3,5-dihydroxyphenylglycine, or quisqualate) was added to the cells, and the response of the cells was measured.
The above described assay operated in two modes. In the first mode, a range of concentrations of the present compounds were added to cells, followed by a single fixed concentration of agonist. If a compound acted as a potentiator, an EC50 value for potentiation and a maximum extent of potentiation by the compound at this concentration of agonist was determined by non-linear curve fitting. In the second mode, several fixed concentrations of the present compounds were added to various wells on a plate, followed by a range of concentrations of agonist for each concentration of present compound; the EC50 values for the agonist at each concentration of compound were determined by non-linear curve fitting. A decrease in the EC50 value of the agonist with increasing concentrations of the present compounds (a leftward shift of the agonist concentration-response curve) is an indication of the degree of mGluR5 potentiation at a given concentration of the present compound. An increase in the EC50 value of the agonist with increasing concentrations of the present compounds (a rightward shift of the agonist concentration-response curve) is an indication of the degree of mGluR5 antagonism at a given concentration of the present compound. The second mode also indicates whether the present compounds also affect the maximum response to mGluR5 to agonists.
The mGluR5 activity was determined using the metabotropic glutamate receptor activity assays in human embryonic kidney cells as described herein, wherein the human embryonic kidney cells were transfected with human mGluR5. The compounds in Table 1 were synthesized with methods identical or analogous to those shown herein. The requisite starting materials were commercially available, described in the literature, or readily synthesized by one skilled in the art of organic synthesis. The compound number given in Table I corresponds to the compound number in Table II and the structure given therein.
Human mGluR5a cDNA in pCMV6-XL6 mammalian expression plasmid was purchased from OriGene Technologies, Inc. (catalogue number SC326357) and subcloned into pcDNA3.1(−). Human embryonic kidney (HEK) 293A cells were then transfected with human mGluR5a pcDNA3.1(−) using LipofectAmine-2000 (Invitrogen) and monoclones were selected and tested for functional response using a Ca^2+ mobilization assay. Monoclones were named for the species (“H” for human) plus the location on the plate (e.g. “10H”).
HEK cells transfected with the human mGluR5a receptor (H10H or H12H cell line) were plated at 15,000 cells/well in clear-bottomed poly-D-lysine-coated assay plates (BD Falcon) in glutamate-glutamine-free growth medium and incubated overnight at 37° C. and 5% CO2.

T1 sequence (P41594 21-1180 isoform P41594-2 limits assumed): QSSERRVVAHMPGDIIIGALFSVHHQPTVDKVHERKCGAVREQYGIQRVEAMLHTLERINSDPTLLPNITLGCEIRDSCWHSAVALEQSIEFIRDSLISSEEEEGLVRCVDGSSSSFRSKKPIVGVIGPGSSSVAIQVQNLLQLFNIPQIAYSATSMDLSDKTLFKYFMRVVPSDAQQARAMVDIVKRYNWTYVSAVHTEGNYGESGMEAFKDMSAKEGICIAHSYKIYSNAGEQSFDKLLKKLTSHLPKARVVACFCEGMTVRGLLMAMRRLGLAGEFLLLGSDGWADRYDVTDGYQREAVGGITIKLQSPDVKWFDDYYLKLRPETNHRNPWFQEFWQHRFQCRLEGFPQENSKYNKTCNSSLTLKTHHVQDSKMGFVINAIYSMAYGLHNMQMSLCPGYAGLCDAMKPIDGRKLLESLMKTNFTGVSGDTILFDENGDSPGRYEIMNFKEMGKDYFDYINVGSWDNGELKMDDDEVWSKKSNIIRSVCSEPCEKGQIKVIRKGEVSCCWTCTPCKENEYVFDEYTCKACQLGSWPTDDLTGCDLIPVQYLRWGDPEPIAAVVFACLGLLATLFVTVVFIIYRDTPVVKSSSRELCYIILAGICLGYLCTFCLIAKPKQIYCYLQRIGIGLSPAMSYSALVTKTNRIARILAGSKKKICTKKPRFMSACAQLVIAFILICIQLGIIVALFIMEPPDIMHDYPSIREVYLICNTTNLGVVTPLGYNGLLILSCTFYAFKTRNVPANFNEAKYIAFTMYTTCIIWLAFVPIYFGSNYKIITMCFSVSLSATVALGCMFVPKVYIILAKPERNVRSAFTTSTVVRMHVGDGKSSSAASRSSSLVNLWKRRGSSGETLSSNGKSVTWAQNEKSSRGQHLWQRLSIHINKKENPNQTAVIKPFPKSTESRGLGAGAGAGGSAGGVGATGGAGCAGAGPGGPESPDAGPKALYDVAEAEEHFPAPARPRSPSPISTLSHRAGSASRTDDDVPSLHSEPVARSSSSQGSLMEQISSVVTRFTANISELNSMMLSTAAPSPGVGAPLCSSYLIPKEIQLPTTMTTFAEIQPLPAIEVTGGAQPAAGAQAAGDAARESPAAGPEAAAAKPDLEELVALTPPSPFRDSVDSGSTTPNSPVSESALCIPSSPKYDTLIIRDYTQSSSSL

pEC50 | SMILES
5.59 | O=C1c2nc(COc3ccccc3)nn2CCN1c1ccc(F)cc1 [Example 5]
7.14 | O=C1c2cc(COc3ccccc3)nn2CCN1c1ccc(F)cc1 [Example 6]
6.06 | O=C1c2cc(COc3ccccc3)nn2CCN1c1ccccn1 [Example 12]
5.73 | O=C1c2cc(COc3ccccc3)nn2CCN1c1cccnc1 [Example 13]
6.68 | Cc1ccc(N2CCn3nc(COc4ccccc4)cc3C2=O)nc1 [Example 16]
6.98 | CC(C)CN1CCn2nc(COc3ccccc3)cc2C1=O [Example 26]
6.24 | O=C1c2cc(COc3ccccc3)nn2CCN1c1ccncc1F [Example 29]
6.13 | Cc1ccncc1N1CCn2nc(COc3ccccc3)cc2C1=O [Example 32]
7.09 | Cc1cccc(N2CCn3nc(COc4ccccc4)cc3C2=O)c1 [Example 48]
7.09 | Cc1ccc(N2CCn3nc(COc4ccccc4)cc3C2=O)cc1 [Example 49]
6.92 | COc1ccc(N2CCn3nc(COc4ccccc4)cc3C2=O)cc1 [Example 50]
7.26 | COc1cc(N2CCn3nc(COc4ccccc4)cc3C2=O)ccc1F [Example 51]
7.58 | Cc1cc(N2CCn3nc(COc4ccccc4)cc3C2=O)ccc1F [Example 52]
7.62 | Cc1cccc(N2CCn3nc(COc4ccccc4)cc3C2=O)c1C [Example 56]
6.82 | CCOc1ccccc1N1CCn2nc(COc3ccccc3)cc2C1=O [Example 57]
6.92 | COc1ccc(N2CCn3nc(COc4ccccc4)cc3C2=O)cc1F [Example 58]
7.40 | Cc1cc(F)ccc1N1CCn2nc(COc3ccccc3)cc2C1=O [Example 60]
7.19 | Cc1ccc(F)cc1N1CCn2nc(COc3ccccc3)cc2C1=O [Example 61]
7.27 | Cc1ccc(N2CCn3nc(COc4ccccc4)cc3C2=O)cc1F [Example 62]

SMILES | pEC50
O=C1c2cc(COc3ccccc3)nn2CCN1c1ccc(F)cn1 [Example 11] | 6.81

Same assay, conditions: HEK cells transfected with human mGluR5 (H10H or H12H); in presence of EC20 glutamate; read-out: EC50

EC50 [µM] | SMILES
0.617 | O=c1c2nc(COc3ccccc3)nn2ccn1-c1ccc(F)cc1 [Example 4]
2.57 | O=C1c2nc(COc3ccccc3)nn2CCN1c1ccc(F)cc1 [Example 5]
0.072 | O=C1c2cc(COc3ccccc3)nn2CCN1c1ccc(F)cc1 [Example 6]
0.871 | O=C1c2cc(COc3ccccc3)nn2CCN1c1ccccn1 [Example 12]
1.86 | O=C1c2cc(COc3ccccc3)nn2CCN1c1cccnc1 [Example 13]
0.209 | Cc1ccc(N2CCn3nc(COc4ccccc4)cc3C2=O)nc1 [Example 16]
0.105 | CC(C)CN1CCn2nc(COc3ccccc3)cc2C1=O [Example 26]
0.575 | O=C1c2cc(COc3ccccc3)nn2CCN1c1ccncc1F [Example 29]
0.537 | Cc1cccnc1N1CCn2nc(COc3ccccc3)cc2C1=O [Example 30]
0.741 | Cc1ccncc1N1CCn2nc(COc3ccccc3)cc2C1=O [Example 32]
2.07 | Cn1ccn2nc(COc3ccccc3)cc2c1=O [Example 37]
0.081 | Cc1cccc(N2CCn3nc(COc4ccccc4)cc3C2=O)c1 [Example 48]
0.081 | Cc1ccc(N2CCn3nc(COc4ccccc4)cc3C2=O)cc1 [Example 49]
0.12 | COc1ccc(N2CCn3nc(COc4ccccc4)cc3C2=O)cc1 [Example 50]
0.055 | COc1cc(N2CCn3nc(COc4ccccc4)cc3C2=O)ccc1F [Example 51]
0.026 | Cc1cc(N2CCn3nc(COc4ccccc4)cc3C2=O)ccc1F [Example 52]
0.024 | Cc1cccc(N2CCn3nc(COc4ccccc4)cc3C2=O)c1C [Example 56]
0.15 | CCOc1ccccc1N1CCn2nc(COc3ccccc3)cc2C1=O [Example 57]
0.12 | COc1ccc(N2CCn3nc(COc4ccccc4)cc3C2=O)cc1F [Example 58]
0.04 | Cc1cc(F)ccc1N1CCn2nc(COc3ccccc3)cc2C1=O [Example 60]
0.065 | Cc1ccc(F)cc1N1CCn2nc(COc3ccccc3)cc2C1=O [Example 61]
0.053 | Cc1ccc(N2CCn3nc(COc4ccccc4)cc3C2=O)cc1F [Example 62]

SMILES | EC50 [µM]
O=C1c2cc(COc3ccccc3)nn2CCN1c1ccc(F)cn1 [Example 11] | 0.155

Same assay, conditions: maximum % effect in concentration-response curve, as percent of response to maximally effective glutamate

Emax [%] | Emax (%) | SMILES
52 |  | O=c1c2nc(COc3ccccc3)nn2ccn1-c1ccc(F)cc1 [Example 4]
 | 73 | O=C1c2nc(COc3ccccc3)nn2CCN1c1ccc(F)cc1 [Example 5]
 | 82 | O=C1c2cc(COc3ccccc3)nn2CCN1c1ccc(F)cc1 [Example 6]
 | 69 | O=C1c2cc(COc3ccccc3)nn2CCN1c1ccccn1 [Example 12]
 | 64 | O=C1c2cc(COc3ccccc3)nn2CCN1c1cccnc1 [Example 13]
 | 76 | Cc1ccc(N2CCn3nc(COc4ccccc4)cc3C2=O)nc1 [Example 16]
 | 75 | CC(C)CN1CCn2nc(COc3ccccc3)cc2C1=O [Example 26]
 | 80 | O=C1c2cc(COc3ccccc3)nn2CCN1c1ccncc1F [Example 29]
75 |  | Cc1cccnc1N1CCn2nc(COc3ccccc3)cc2C1=O [Example 30]
 | 74 | Cc1ccncc1N1CCn2nc(COc3ccccc3)cc2C1=O [Example 32]
74 |  | Cn1ccn2nc(COc3ccccc3)cc2c1=O [Example 37]
 | 65 | Cc1cccc(N2CCn3nc(COc4ccccc4)cc3C2=O)c1 [Example 48]
 | 64 | Cc1ccc(N2CCn3nc(COc4ccccc4)cc3C2=O)cc1 [Example 49]
 | 58 | COc1ccc(N2CCn3nc(COc4ccccc4)cc3C2=O)cc1 [Example 50]
 | 61 | COc1cc(N2CCn3nc(COc4ccccc4)cc3C2=O)ccc1F [Example 51]
 | 68 | Cc1cc(N2CCn3nc(COc4ccccc4)cc3C2=O)ccc1F [Example 52]
 | 69 | Cc1cccc(N2CCn3nc(COc4ccccc4)cc3C2=O)c1C [Example 56]
 | 67 | CCOc1ccccc1N1CCn2nc(COc3ccccc3)cc2C1=O [Example 57]
 | 58 | COc1ccc(N2CCn3nc(COc4ccccc4)cc3C2=O)cc1F [Example 58]
 | 66 | Cc1cc(F)ccc1N1CCn2nc(COc3ccccc3)cc2C1=O [Example 60]
 | 68 | Cc1ccc(F)cc1N1CCn2nc(COc3ccccc3)cc2C1=O [Example 61]
 | 60 | Cc1ccc(N2CCn3nc(COc4ccccc4)cc3C2=O)cc1F [Example 62]

SMILES | Emax [%] | Emax (%)
O=C1c2cc(COc3ccccc3)nn2CCN1c1ccc(F)cn1 [Example 11] |  | 79
